Laboratory results from US20260132129A1 (Genesis Therapeutics, Inc., priority 2022, published 2026).

Molecular target: T1, PI3Kα H1047R (T47D cells) (Homo sapiens, UniProt P42336, H1047R)
T1 construct: endogenous in cells; host or cells: T47D cells
Assay: PI3Kα cellular assay: pAKT HTRF in T47D cells after EGF stimulation
Format: cell-based
Conditions: for IC50: T47D cells (PI3Kα H1047R), pAKT S473 HTRF, EGF stimulation
How it was run: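 T47D cells (PIK3CA H1047R) serum-starved 16 h, then treated 1 h at 37 °C with compound (10,000 nM top, 3-fold steps to 0.5 nM). After 10 min stimulation with 20 ng/mL EGF, cells were lysed and pAKT measured by HTRF.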

T1 sequence (P42336 whole entry H1047R): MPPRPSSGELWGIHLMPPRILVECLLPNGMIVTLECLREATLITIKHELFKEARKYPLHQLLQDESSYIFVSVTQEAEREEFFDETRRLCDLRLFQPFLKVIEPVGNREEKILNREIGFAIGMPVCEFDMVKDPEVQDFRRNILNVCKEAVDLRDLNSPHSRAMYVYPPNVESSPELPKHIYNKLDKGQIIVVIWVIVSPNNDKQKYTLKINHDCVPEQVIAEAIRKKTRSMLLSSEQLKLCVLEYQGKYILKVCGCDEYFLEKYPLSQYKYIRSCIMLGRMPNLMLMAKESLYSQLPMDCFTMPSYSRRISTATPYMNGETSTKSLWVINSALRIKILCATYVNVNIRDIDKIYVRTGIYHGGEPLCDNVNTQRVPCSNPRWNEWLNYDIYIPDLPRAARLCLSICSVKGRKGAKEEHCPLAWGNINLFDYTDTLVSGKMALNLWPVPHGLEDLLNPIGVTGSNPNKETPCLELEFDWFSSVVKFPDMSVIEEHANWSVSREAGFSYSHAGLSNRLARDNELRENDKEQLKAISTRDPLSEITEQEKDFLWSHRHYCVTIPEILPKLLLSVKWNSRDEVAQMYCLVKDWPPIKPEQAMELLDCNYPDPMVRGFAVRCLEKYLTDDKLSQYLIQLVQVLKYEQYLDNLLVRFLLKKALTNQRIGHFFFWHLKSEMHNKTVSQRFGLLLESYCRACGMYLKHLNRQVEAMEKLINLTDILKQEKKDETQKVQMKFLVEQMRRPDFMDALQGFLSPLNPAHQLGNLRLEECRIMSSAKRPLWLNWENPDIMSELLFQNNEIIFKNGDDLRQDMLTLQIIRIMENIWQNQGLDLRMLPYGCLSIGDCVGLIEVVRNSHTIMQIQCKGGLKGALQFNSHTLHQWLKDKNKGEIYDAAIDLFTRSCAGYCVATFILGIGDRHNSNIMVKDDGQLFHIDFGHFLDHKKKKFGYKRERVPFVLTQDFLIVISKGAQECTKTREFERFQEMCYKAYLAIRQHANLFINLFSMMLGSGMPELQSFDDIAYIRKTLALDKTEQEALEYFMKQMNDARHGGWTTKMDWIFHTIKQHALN
T1 sequence (P27986 whole entry partner): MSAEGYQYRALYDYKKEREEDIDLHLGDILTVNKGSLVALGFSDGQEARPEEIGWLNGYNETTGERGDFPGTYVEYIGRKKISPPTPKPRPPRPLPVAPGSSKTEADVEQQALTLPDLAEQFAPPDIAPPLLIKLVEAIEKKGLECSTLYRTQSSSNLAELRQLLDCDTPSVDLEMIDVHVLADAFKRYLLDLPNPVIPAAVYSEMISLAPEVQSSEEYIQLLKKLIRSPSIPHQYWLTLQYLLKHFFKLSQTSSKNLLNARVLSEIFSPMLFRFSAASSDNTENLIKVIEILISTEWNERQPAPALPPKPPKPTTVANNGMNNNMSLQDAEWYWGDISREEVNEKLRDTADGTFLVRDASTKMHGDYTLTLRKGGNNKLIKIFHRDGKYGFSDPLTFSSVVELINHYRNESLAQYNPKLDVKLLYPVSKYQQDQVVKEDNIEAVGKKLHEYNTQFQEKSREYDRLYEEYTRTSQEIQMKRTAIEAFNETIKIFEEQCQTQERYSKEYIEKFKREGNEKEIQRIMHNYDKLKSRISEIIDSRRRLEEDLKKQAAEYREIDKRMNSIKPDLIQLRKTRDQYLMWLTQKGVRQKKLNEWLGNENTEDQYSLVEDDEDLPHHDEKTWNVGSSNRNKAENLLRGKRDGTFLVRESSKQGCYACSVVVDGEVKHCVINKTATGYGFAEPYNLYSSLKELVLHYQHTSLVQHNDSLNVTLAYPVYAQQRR

Row | SMILES | IC50 [nM] | T47D pAKT S473 HTRF IC50 (H1047R): T47D (H1047R) selectivity over SKBR3 (WT)
1 | Cc1cc([C@H](C)Nc2ccccc2C(=O)O)c2nc([C@@H]3CCCOC3)c(C)c(=O)n2c1 [Compound 1281] | 500 to 2000 | B (B denotes 20-fold≥value>5-fold)
2 | Cc1cc([C@H](C)Nc2ccccc2C(=O)O)c2nc([C@H]3CCCOC3)c(C)c(=O)n2c1 [Compound 1282] | > 2000 | C (C denotes ≤5-fold)
3 | Cc1cc([C@@H](C)Nc2ccccc2S(N)(=O)=O)c2nc(C3CCCOC3)c(C)c(=O)n2c1 (stereo partly shown) [Compound 1283] | > 2000 | C (C denotes ≤5-fold)
4 | Cc1cc([C@H](C)Nc2ccccc2S(N)(=O)=O)c2nc([C@@H]3CCCOC3)c(C)c(=O)n2c1 [Compound 1285] | < 100 | A (A denotes >20-fold)
5 | Cc1cc([C@H](C)Nc2ccccc2S(N)(=O)=O)c2nc([C@H]3CCCOC3)c(C)c(=O)n2c1 [Compound 1286] | 500 to 2000 | B (B denotes 20-fold≥value>5-fold)
6 | Cc1cc([C@@H](C)Nc2ccccc2S(N)(=O)=O)c2nc(C3CCN(CC(C)C)CC3)c(C)c(=O)n2c1 [Compound 1287] | – | C (C denotes ≤5-fold)
7 | CC(=O)N1CCC(c2ccc(-c3nc4c([C@@H](C)Nc5ccccc5C(=O)O)cc(C)cn4c(=O)c3C)cc2)CC1 [Compound 1289] | 100 to 500 | A (A denotes >20-fold)
8 | CC(=O)N1CCC(c2ccc(-c3nc4c([C@H](C)Nc5ccccc5C(=O)O)cc(C)cn4c(=O)c3C)cc2)CC1 [Compound 1290] | > 2000 | C (C denotes ≤5-fold)
9 | COc1cc(-c2nc3c([C@@H](C)Nc4ccccc4C(=O)O)cc(C)cn3c(=O)c2C)cn2ncc(C#N)c12 [Compound 1291] | 100 to 500 | A (A denotes >20-fold)
10 | COc1cc(-c2nc3c([C@H](C)Nc4ccccc4C(=O)O)cc(C)cn3c(=O)c2C)cn2ncc(C#N)c12 [Compound 1292] | > 2000 | C (C denotes ≤5-fold)
11 | Cc1cc(C(C)Nc2ccccc2C(=O)O)c2nc(C3CCCN(CC(F)F)C3)c(C)c(=O)n2c1 (stereo not shown) [Compound 1293] | 100 to 500 | A (A denotes >20-fold)
12 | Cc1cc([C@@H](C)Nc2ccccc2S(N)(=O)=O)c2nc(-c3ccc(C4CCOCC4)nc3)c(C)c(=O)n2c1 [Compound 1294] | 500 to 2000 | B (B denotes 20-fold≥value>5-fold)
13 | Cc1cc([C@H](C)Nc2ccccc2S(N)(=O)=O)c2nc(-c3ccc(C4CCOCC4)nc3)c(C)c(=O)n2c1 [Compound 1295] | < 100 | A (A denotes >20-fold)
14 | Cc1cc([C@@H](C)Nc2ccccc2C(=O)O)c2nc(-c3cnc(C4CCOCC4)nc3)c(C)c(=O)n2c1 [Compound 1296] | 100 to 500 | A (A denotes >20-fold)
15 | Cc1cc([C@H](C)Nc2ccccc2C(=O)O)c2nc(-c3cnc(C4CCOCC4)nc3)c(C)c(=O)n2c1 [Compound 1297] | > 2000 | C (C denotes ≤5-fold)
16 | Cc1cc([C@@H](C)Nc2ccccc2C(=O)O)c2nc(-c3ccc4ccnn4c3)c(C)c(=O)n2c1 [Compound 1298] | < 100 | A (A denotes >20-fold)
17 | Cc1cc([C@H](C)Nc2ccccc2C(=O)O)c2nc(-c3ccc4ccnn4c3)c(C)c(=O)n2c1 [Compound 1299] | > 2000 | C (C denotes ≤5-fold)
18 | Cc1cc(C(C)Nc2ccccc2C(=O)O)c2nc(-c3ccc(C4CCN(C(=O)C5CC5)CC4)c(F)c3)c(C)c(=O)n2c1 (stereo not shown) [Compound 1300] | < 100 | A (A denotes >20-fold)
19 | Cc1cc(C(C)Nc2ccccc2C(=O)O)c2nc(-c3ccc(C4CCNCC4)nc3)c(C)c(=O)n2c1 (stereo not shown) [Compound 1302] | > 2000 | C (C denotes ≤5-fold)
20 | Cc1cc(C(C)Nc2ccccc2C(=O)O)c2nc(-c3ccc(C4CNC4)nc3)c(C)c(=O)n2c1 (stereo not shown) [Compound 1303] | > 2000 | C (C denotes ≤5-fold)

Row | SMILES | IC50 [nM] | T47D pAKT S473 HTRF IC50 (H1047R): T47D (H1047R) selectivity over SKBR3 (WT)
21 | Cc1cc(C(C)Nc2ccccc2S(N)(=O)=O)c2nc(-c3ccc(C4CCNCC4)nc3)c(C)c(=O)n2c1 (stereo not shown) [Compound 1304] | 500 to 2000 | B (B denotes 20-fold≥value>5-fold)
22 | Cc1cc(C(C)Nc2ccccc2S(N)(=O)=O)c2nc(-c3ccc(C4CNC4)nc3)c(C)c(=O)n2c1.O=C(O)C(F)(F)F (stereo not shown) [Compound 1305] | > 2000 | C (C denotes ≤5-fold)
23 | Cc1cc([C@H](C)Nc2ccccc2C(=O)O)c2nc(-c3ccc(CNc4[nH]cc(C)c4C#N)c(C)c3)c(C)c(=O)n2c1 [Compound 1307] | – | B (B denotes 20-fold≥value>5-fold)
24 | Cc1cc(C(C)Nc2ccccc2C(=O)O)c2nc(C3CCN(CC(F)F)CC3)cc(=O)n2c1 (stereo not shown) [Compound 1308] | 100 to 500 | A (A denotes >20-fold)
25 | Cc1cc([C@@H](C)Nc2ccccc2S(N)(=O)=O)c2nc([C@@H]3CCCN(CC(F)F)C3)c(C)c(=O)n2c1 [Compound 1309] | 500 to 2000 | B (B denotes 20-fold≥value>5-fold)
26 | Cc1cc([C@@H](C)Nc2ccccc2S(N)(=O)=O)c2nc([C@H]3CCCN(CC(F)F)C3)c(C)c(=O)n2c1 [Compound 1310] | > 2000 | C (C denotes ≤5-fold)
27 | Cc1cc([C@H](C)Nc2ccccc2S(N)(=O)=O)c2nc([C@@H]3CCCN(CC(F)F)C3)c(C)c(=O)n2c1 [Compound 1311] | > 2000 | C (C denotes ≤5-fold)
28 | Cc1cc([C@H](C)Nc2ccccc2S(N)(=O)=O)c2nc([C@H]3CCCN(CC(F)F)C3)c(C)c(=O)n2c1 [Compound 1312] | < 100 | A (A denotes >20-fold)
29 | Cc1cc(C(C)Nc2ccccc2C(=O)O)c2nc(-c3ccc(CC4CCN(C(=O)C5CC5)CC4)c(F)c3)c(C)c(=O)n2c1 (stereo not shown) [Compound 1313] | 100 to 500 | A (A denotes >20-fold)
30 | Cc1cc([C@@H](C)Nc2ccccc2C(=O)O)c2nc(-c3ccc(CC4CCN(C(=O)C5CC5)CC4)c(F)c3)c(C)c(=O)n2c1 [Compound 1314] | 100 to 500 | A (A denotes >20-fold)
31 | Cc1cc([C@H](C)Nc2ccccc2C(=O)O)c2nc(-c3ccc(CC4CCN(C(=O)C5CC5)CC4)c(F)c3)c(C)c(=O)n2c1 [Compound 1315] | – | C (C denotes ≤5-fold)
32 | Cc1cc([C@@H](C)Nc2ccccc2C(=O)O)c2nc(-c3ccc(C4CCC(C(=O)C5CC5)CC4)c(F)c3)c(C)c(=O)n2c1 (stereo partly shown) [Compound 1318] | – | C (C denotes ≤5-fold)
33 | Cc1cccc(-c2nc3c([C@H](C)Nc4ccccc4S(C)(=O)=O)cc(C)cn3c(=O)c2C)c1 [Compound 1320] | – | B (B denotes 20-fold≥value>5-fold)
34 | Cc1cccc(-c2nc3c(C(C)Nc4ccccc4C(=O)CS(=O)(=O)N(C)C)cc(C)cn3c(=O)c2C)c1 (stereo not shown) [Compound 1321] | – | B (B denotes 20-fold≥value>5-fold)
35 | Cc1cc(C(C)Nc2ccccc2C(=O)O)c2nc(C3=CCC(C4CN(C)C4)C=C3)c(C)c(=O)n2c1 (stereo not shown) [Compound 1322] | – | C (C denotes ≤5-fold)
36 | Cc1cc([C@@H](C)Nc2ccccc2S(N)(=O)=O)c2nc(N3Cc4cccnc4C3)c(C)c(=O)n2c1 [Compound 1323] | < 100 | A (A denotes >20-fold)
37 | Cc1cc([C@H](C)Nc2ccccc2S(N)(=O)=O)c2nc(N3Cc4cccnc4C3)c(C)c(=O)n2c1 [Compound 1324] | – | A (A denotes >20-fold)
38 | CCc1ccn2c(=O)c(C)c(-c3cccc(F)c3)nc2c1[C@@H](C)Nc1ccccc1C(=O)O [Compound 1325] | – | C (C denotes ≤5-fold)
39 | CCc1ccn2c(=O)c(C)c(-c3cccc(F)c3)nc2c1[C@H](C)Nc1ccccc1C(=O)O [Compound 1326] | < 100 | A (A denotes >20-fold)
40 | Cc1cc([C@H](C)Nc2ccccc2S(=O)(=O)O)c2nc(-c3cccc(C4CC4)c3)cc(=O)n2c1 [Compound 1327] | – | B (B denotes 20-fold≥value>5-fold)
